The values below come from ChEMBL document CHEMBL4190168 (Medchemcomm, 2016).

A short description of series [1]: Solubility of the compound in water. Format: physicochemical.
The test system of series [2] is EA.hy 926. Briefly: Antiangiogenic activity in human EAhy926 cells assessed as inhibition of VEGF-induced capillary tube formation after 24 hrs by matrigel based phase contrast microscopic analysis. Format: functional, cell-based.
The subject of the next series is Chorioallantoic membrane. Briefly: Antiangiogenic activity in chicken fertilized egg chorioallantoic membrane at 30 uM after 48 hrs by microscopic analysis. The format is functional, tissue-based. The following applies: Gallus gallus.
Series [3] concerns EA.hy 926. Briefly: Anti-migratory activity against human EAhy926 cells assessed as inhibition of VEGF-induced cell migration towards wound area after 24 hrs by phase contrast microscopic analysis. The format is functional, cell-based.

Activity calls are given as the source filed them. No cut-off for these calls is given here. A value given as a limit tells only on which side of the number the result lay.

Consider `CCCCn1c2ccccc2c2cc(CNCCCCCNCc3cc4c5ccccc5n(CCCC)c4c(C(C)C)n3)nc(C(C)C)c21.Cl`, for which the solubility (commonly the concentration that dissolves in the medium under given conditions) in series [1] was greater than 10000 µg/mL.

For `COc1ccc(-c2nc(CNCCCCCNCc3cc4c5ccccc5n(Cc5ccccc5)c4c(-c4ccc(OC)cc4)n3)cc3c4ccccc4n(Cc4ccccc4)c23)cc1.Cl`, the solubility in series [1] was greater than 10000 µg/mL.

In series [1], `COc1ccc(-c2nc(CNCCCCNCc3cc4c5ccccc5n(C)c4c(-c4ccc(OC)cc4)n3)cc3c4ccccc4n(C)c23)cc1.Cl` came in with a solubility greater than 10000 µg/mL.

`Cl.Clc1ccc(-c2nc(CNCCCCCCNCc3cc4c5ccccc5n(Cc5ccccc5)c4c(-c4ccc(Cl)cc4)n3)cc3c4ccccc4n(Cc4ccccc4)c23)cc1` returned a solubility in series [1] greater than 10000 µg/mL.

In turn, `Cc1nc(CNCCCNCc2cc3c4ccccc4n(Cc4ccccc4)c3c(C)n2)cc2c3ccccc3n(Cc3ccccc3)c12.Cl` gave a solubility in series [1] greater than 10000 µg/mL.

As for `Cl.c1ccc(Cn2c3ccccc3c3cc(CNCCCNCc4cc5c6ccccc6n(Cc6ccccc6)c5c(-c5ccccc5)n4)nc(-c4ccccc4)c32)cc1`, in series [1], the solubility is greater than 10000 µg/mL.

In turn, `Cc1nc(CNCCCCNCc2cc3c4ccccc4n(C)c3c(C)n2)cc2c3ccccc3n(C)c12.Cl` displayed a solubility in series [1] greater than 10000 µg/mL.

The compound `COc1ccc(-c2nc(CNCCCCCNCc3cc4c5ccccc5n(C)c4c(-c4ccc(OC)cc4)n3)cc3c4ccccc4n(C)c23)cc1.Cl` had a solubility in series [1] greater than 10000 µg/mL.

`CCn1c2ccccc2c2cc(CNCCCNCc3cc4c5ccccc5n(CC)c4c(-c4cc(OC)c(OC)c(OC)c4)n3)nc(-c3cc(OC)c(OC)c(OC)c3)c21.Cl` returned a solubility in series [1] greater than 10000 µg/mL.

On to `CCCCn1c2ccccc2c2cc(CNCCCCNCc3cc4c5ccccc5n(CCCC)c4c(C)n3)nc(C)c21.Cl`, for which, in series [1], the solubility is greater than 10000 µg/mL.

Compound `COc1ccc(-c2nc(CNCCCCNCc3cc4c([nH]c5ccccc54)c(-c4ccc(OC)cc4)n3)cc3c2[nH]c2ccccc23)cc1.Cl` returned a solubility in series [1] greater than 10000 µg/mL.

For the compound `Cc1nc(CNCCCCCCNCc2cc3c4ccccc4n(C)c3c(C)n2)cc2c3ccccc3n(C)c12.Cl`, in series [1], the solubility was greater than 10000 µg/mL.

In series [1], `COc1ccc(-c2nc(CNCCCCCCNCc3cc4c5ccccc5n(Cc5ccccc5)c4c(-c4ccc(OC)cc4)n3)cc3c4ccccc4n(Cc4ccccc4)c23)cc1.Cl` gave a solubility greater than 10000 µg/mL.

In the case of `CCCCn1c2ccccc2c2cc(CNCCCNCc3cc4c5ccccc5n(CCCC)c4c(-c4ccc(Cl)cc4)n3)nc(-c3ccc(Cl)cc3)c21.Cl`, in series [1], the solubility is greater than 10000 µg/mL.

In the case of `Cc1nc(CNCCCNCc2cc3c4ccccc4n(CC(C)C)c3c(C)n2)cc2c3ccccc3n(CC(C)C)c12.Cl`, the solubility in series [1] is greater than 10000 µg/mL.

In turn, `Cl.Cn1c2ccccc2c2cc(CNCCCCCCNCc3cc4c5ccccc5n(C)c4c(-c4ccccc4)n3)nc(-c3ccccc3)c21` gave a solubility in series [1] greater than 10000 µg/mL.

`CC(C)c1nc(CNCCCNCc2cc3c4ccccc4n(Cc4ccccc4)c3c(C(C)C)n2)cc2c3ccccc3n(Cc3ccccc3)c12.Cl`: the solubility in series [1] is greater than 10000 µg/mL.

Regarding `CCCCn1c2ccccc2c2cc(CNCCCCNCc3cc4c5ccccc5n(CCCC)c4c(-c4ccc(Cl)cc4)n3)nc(-c3ccc(Cl)cc3)c21.Cl`, the solubility in series [1] is greater than 10000 µg/mL.

For the compound `Cc1nc(CNCCCCNCc2cc3c4ccccc4n(C(C)C)c3c(C)n2)cc2c3ccccc3n(C(C)C)c12.Cl`, the solubility in series [1] is greater than 10000 µg/mL.

In series [1], `Cc1nc(CNCCCNCc2cc3c4ccccc4n(CCCc4ccccc4)c3c(C)n2)cc2c3ccccc3n(CCCc3ccccc3)c12.Cl` yielded a solubility greater than 10000 µg/mL.

As to `Cc1nc(CNCCCCNCc2cc3c4ccccc4n(Cc4ccccc4)c3c(C)n2)cc2c3ccccc3n(Cc3ccccc3)c12.Cl`, the solubility in series [1] was greater than 10000 µg/mL.

Turning to `CC(C)c1nc(CNCCCCCCNCc2cc3c4ccccc4n(Cc4ccccc4)c3c(C(C)C)n2)cc2c3ccccc3n(Cc3ccccc3)c12.Cl`, the solubility in series [1] is greater than 10000 µg/mL.

Turning to `Cc1nc(CNCCCNCc2cc3c4ccccc4n(Cc4cccc(Cl)c4)c3c(C)n2)cc2c3ccccc3n(Cc3cccc(Cl)c3)c12.Cl`, the solubility in series [1] is greater than 10000 µg/mL.

Consider `CC(C)c1nc(CNCCCCCNCc2cc3c([nH]c4ccccc43)c(C(C)C)n2)cc2c1[nH]c1ccccc12.Cl`, for which the solubility in series [1] was greater than 10000 µg/mL.

Consider `CCCCCCn1c2ccccc2c2cc(CNCCCCCCNCc3cc4c5ccccc5n(CCCCCC)c4c(-c4ccc(OC)cc4)n3)nc(-c3ccc(OC)cc3)c21.Cl`, for which the solubility in series [1] was greater than 10000 µg/mL.

For the compound `Cl.c1ccc(Cn2c3ccccc3c3cc(CNCCCCCCNCc4cc5c6ccccc6n(Cc6ccccc6)c5c(-c5ccccc5)n4)nc(-c4ccccc4)c32)cc1`, the solubility in series [1] is greater than 10000 µg/mL.

For `CCCCn1c2ccccc2c2cc(CNCCCCNCc3cc4c5ccccc5n(CCCC)c4c(C(C)C)n3)nc(C(C)C)c21.Cl`, in series [1], the solubility was greater than 10000 µg/mL.

For `COc1ccc(-c2nc(CNCCCCCNCc3cc4c5ccccc5n(C)c4c(-c4ccc(OC)cc4)n3)cc3c4ccccc4n(C)c23)cc1`, the inhibition result with EA.hy 926 [2] and in the series with EA.hy 926 [3] was “Dose-dependent effect” each time. For the same compound, the result in the series with Chorioallantoic membrane was Active.

The compound `Cc1nc(CNCCCCNCc2cc3c4ccccc4n(CC(C)C)c3c(C)n2)cc2c3ccccc3n(CC(C)C)c12.Cl` gave a solubility in series [1] greater than 10000 µg/mL.

With `Cl.Clc1ccc(-c2nc(CNCCCCCNCc3cc4c5ccccc5n(Cc5ccccc5)c4c(-c4ccc(Cl)cc4)n3)cc3c4ccccc4n(Cc4ccccc4)c23)cc1`, the solubility in series [1] is greater than 10000 µg/mL.

The compound `Cl.Cn1c2ccccc2c2cc(CNCCCCNCc3cc4c5ccccc5n(C)c4c(-c4ccccc4)n3)nc(-c3ccccc3)c21` registered a solubility in series [1] greater than 10000 µg/mL.
